Reference: article PMC4537502 (Psychopharmacology, 2015)

Key:
D2R = details: read-out: Kd in rat brain tissue; ref Köhler et al. [1985]; cited from earlier work
[1] = biological target: dopamine D2 receptor (D2R) (Rattus norvegicus, UniProt P61169); test: in vivo; details: rat, baseline, mean ± S.D.
Description: Because of limited availability of the test drug, the 60 mg/kg dose group was scanned only with ^11C-raclopride.
After drug administration and about 20 min before each microPET scan, animals were anesthetized with isoflurane (Pharmachemie BV, Haarlem, Netherlands). […] Both tracers were injected as a slow bolus (1 ml of saline-diluted tracer solution infused during a period of 1 min), using a Harvard-style injection pump.
Two rats were scanned in each scan session. They were positioned on heating mats in a microPET Focus 220 system, in transaxial position above each other with their brains in the field of view. Body temperature of the animals was kept close to normal with electronic temperature controllers. Heart rate and oxygen level of the blood during the scan were monitored using pulse oximeters (PulseSense, Nonin). […] A list mode protocol was used with a 76-min acquisition time.
Image reconstruction was performed using microPET Manager 2.3.3.6 (Siemens). The PET data were split according to position along the y-axis, so that a separate data set was acquired for each animal. The list mode data of the emission scans were reframed in a dynamic sequence of 6 × 10, 4 × 30, 2 × 60, 1 × 120, 1 × 180, 4 × 300, and 3 × 600 s (with an additional 960-s frame for the rat that was injected first). The data were reconstructed per time frame employing an iterative reconstruction algorithm (OSEM2D with Fourier rebinning, 4 iterations, and 16 subsets). […] Data sets were corrected for decay, random coincidences, scatter, and attenuation.
In ^11C-raclopride scans of the brain, three-dimensional regions of interest (ROIs) were manually drawn over the left and right striatum and cerebellum, using the program ASIPro 6.3.3.0 (Siemens). […] Time-activity curves (TACs) were generated for these regions (Fig. 1). The results are expressed as dimensionless standardized uptake values (PET-SUV), defined as [(tissue activity concentration (MBq/g) × body weight (g) / injected dose (MBq)]. Brain tissue was assumed to have a specific gravity of 1 g/ml.
Plateau values for the striatum-to-cerebellum ratio were derived from this curve fit.

Chain of dopamine D2 receptor (D2R) (P61169 whole entry): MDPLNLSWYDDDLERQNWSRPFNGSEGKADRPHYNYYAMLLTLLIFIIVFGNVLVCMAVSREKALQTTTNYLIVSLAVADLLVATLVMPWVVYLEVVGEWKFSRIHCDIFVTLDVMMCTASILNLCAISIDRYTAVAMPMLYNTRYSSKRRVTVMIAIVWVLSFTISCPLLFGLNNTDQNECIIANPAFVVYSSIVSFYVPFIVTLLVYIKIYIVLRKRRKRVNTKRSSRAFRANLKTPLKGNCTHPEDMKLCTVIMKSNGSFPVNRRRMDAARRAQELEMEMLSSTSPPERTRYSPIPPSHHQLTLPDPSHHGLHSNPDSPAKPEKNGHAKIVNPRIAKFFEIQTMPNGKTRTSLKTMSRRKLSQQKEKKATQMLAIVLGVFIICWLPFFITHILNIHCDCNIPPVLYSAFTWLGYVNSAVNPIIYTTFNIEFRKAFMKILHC

Compound | Kd (D2R) [nM] | Target binding of the radioligand (striatum-to-cerebellum ratio at plateau minus one) [1]
CCN1CCC[C@H]1CNC(=O)c1c(O)c(Cl)cc(Cl)c1OC (racemic) [^11C-raclopride] | 1.2 | –
CCN1CCC[C@H]1CNC(=O)c1c(O)c(Cl)cc(Cl)c1O[11CH3] (racemic) [^11C-raclopride] | – | 2.85 ± 0.48
